Experiments:
human C3A liver cells = assay: Microarray differential gene expression in human C3A liver cell cultures treated with steroids; assay type: cell-based
[1] = intranasal; cited from earlier work

Q: With `C[C@H]1C[C@H]2[C@@H]3CCC4=CC(=O)C=C[C@]4(C)[C@@]3(Cl)[C@@H](O)C[C@]2(C)[C@@]1(O)C(=O)CO` [beclomethasone] as the molecule, how does the “Ave DE [log2] (C3A treated with steroid)” value (human C3A liver cells; Clone ID 400654) read?
A: 1.06 log2

Q: And the “Ave DE [log2] (C3A treated with steroid)” value (human C3A liver cells; Clone ID 517374)?
A: 0.40 log2

Q: What about the “Ave DE [log2] (C3A treated with steroid)” value (human C3A liver cells; Clone ID 615776) of the same molecule?
A: 1.01 log2

Q: What about the “Ave DE [log2] (C3A treated with steroid)” value (human C3A liver cells; Clone ID 654246) of the same molecule?
A: −0.95 log2

Q: What about the “Ave DE [log2] (C3A treated with steroid)” value (human C3A liver cells; Clone ID 668460) of the same molecule?
A: 1.23 log2

Q: What about the “Ave DE [log2] (C3A treated with steroid)” value (human C3A liver cells; Clone ID 963331) of the same molecule?
A: −1.01 log2

Q: What about the “Ave DE [log2] (C3A treated with steroid)” value (human C3A liver cells; Clone ID 1275616) of the same molecule?
A: 0.94 log2

Q: What about the “Ave DE [log2] (C3A treated with steroid)” value (human C3A liver cells; Clone ID 1323616) of the same molecule?
A: 1.09 log2

Q: And the “Ave DE [log2] (C3A treated with steroid)” value (human C3A liver cells; Clone ID 1329625)?
A: 0.35 log2

Q: What about the “Ave DE [log2] (C3A treated with steroid)” value (human C3A liver cells; Clone ID 1573840) of the same molecule?
A: 0.97 log2

Q: What about the “Ave DE [log2] (C3A treated with steroid)” value (human C3A liver cells; Clone ID 1604437) of the same molecule?
A: 0.47 log2

Q: What about the “Ave DE [log2] (C3A treated with steroid)” value (human C3A liver cells; Clone ID 1662870) of the same molecule?
A: −0.76 log2

Q: What about the “Ave DE [log2] (C3A treated with steroid)” value (human C3A liver cells; Clone ID 1697719) of the same molecule?
A: −0.69 log2

Q: What about the “Ave DE [log2] (C3A treated with steroid)” value (human C3A liver cells; Clone ID 1723834) of the same molecule?
A: 0.47 log2

Q: What about the “Ave DE [log2] (C3A treated with steroid)” value (human C3A liver cells; Clone ID 1857044) of the same molecule?
A: 0.61 log2

Q: And the “Ave DE [log2] (C3A treated with steroid)” value (human C3A liver cells; Clone ID 1876829)?
A: −1.00 log2

Q: What about the “Ave DE [log2] (C3A treated with steroid)” value (human C3A liver cells; Clone ID 1951845) of the same molecule?
A: 1.01 log2

Q: And the “Ave DE [log2] (C3A treated with steroid)” value (human C3A liver cells; Clone ID 1995520)?
A: 0.82 log2

Q: And the “Ave DE [log2] (C3A treated with steroid)” value (human C3A liver cells; Clone ID 2046717)?
A: 0.98 log2

Q: What about the “Ave DE [log2] (C3A treated with steroid)” value (human C3A liver cells; Clone ID 2086783) of the same molecule?
A: −0.88 log2

Q: And the “Ave DE [log2] (C3A treated with steroid)” value (human C3A liver cells; Clone ID 2095329)?
A: −0.99 log2

Q: And the “Ave DE [log2] (C3A treated with steroid)” value (human C3A liver cells; Clone ID 2285181)?
A: −0.88 log2

Q: What about the “Ave DE [log2] (C3A treated with steroid)” value (human C3A liver cells; Clone ID 2287703) of the same molecule?
A: −0.99 log2

Q: What about the “Ave DE [log2] (C3A treated with steroid)” value (human C3A liver cells; Clone ID 2287724) of the same molecule?
A: −1.05 log2

Q: What about the “Ave DE [log2] (C3A treated with steroid)” value (human C3A liver cells; Clone ID 2294968) of the same molecule?
A: −0.73 log2

Q: What about the “Ave DE [log2] (C3A treated with steroid)” value (human C3A liver cells; Clone ID 2372040) of the same molecule?
A: −1.05 log2

Q: What about the “Ave DE [log2] (C3A treated with steroid)” value (human C3A liver cells; Clone ID 2430165) of the same molecule?
A: 1.04 log2

Q: And the “Ave DE [log2] (C3A treated with steroid)” value (human C3A liver cells; Clone ID 2506425)?
A: 0.88 log2

Q: And the “Ave DE [log2] (C3A treated with steroid)” value (human C3A liver cells; Clone ID 2636759)?
A: 0.81 log2

Q: What about the “Ave DE [log2] (C3A treated with steroid)” value (human C3A liver cells; Clone ID 2695371) of the same molecule?
A: 0.51 log2

Q: What about the “Ave DE [log2] (C3A treated with steroid)” value (human C3A liver cells; Clone ID 2947188) of the same molecule?
A: −1.02 log2

Q: And the “Ave DE [log2] (C3A treated with steroid)” value (human C3A liver cells; Clone ID 3047143)?
A: 1.10 log2

Q: What about the “Ave DE [log2] (C3A treated with steroid)” value (human C3A liver cells; Clone ID 3057272) of the same molecule?
A: 0.83 log2

Q: And the “Ave DE [log2] (C3A treated with steroid)” value (human C3A liver cells; Clone ID 3528232)?
A: 0.38 log2

Q: And the “Ave DE [log2] (C3A treated with steroid)” value (human C3A liver cells; Clone ID 3687607)?
A: 1.03 log2

Q: And the “Ave DE [log2] (C3A treated with steroid)” value (human C3A liver cells; Clone ID 3960194)?
A: 1.00 log2

Q: What about the “Ave DE [log2] (C3A treated with steroid)” value (human C3A liver cells; Clone ID 3973687) of the same molecule?
A: 1.23 log2

Q: What about the “Ave DE [log2] (C3A treated with steroid)” value (human C3A liver cells; Clone ID 3973887) of the same molecule?
A: −0.91 log2

Q: What about the “Ave DE [log2] (C3A treated with steroid)” value (human C3A liver cells; Clone ID 4087621) of the same molecule?
A: 0.89 log2

Q: And the “Ave DE [log2] (C3A treated with steroid)” value (human C3A liver cells; Clone ID 4215034)?
A: 1.13 log2

Q: And the “Ave DE [log2] (C3A treated with steroid)” value (human C3A liver cells; Clone ID 4253663)?
A: −0.70 log2

Q: And the “Ave DE [log2] (C3A treated with steroid)” value (human C3A liver cells; Clone ID 4284270)?
A: −0.70 log2

Q: What about the “Ave DE [log2] (C3A treated with steroid)” value (human C3A liver cells; Clone ID 4855265) of the same molecule?
A: 1.00 log2

Q: And the “Ave DE [log2] (C3A treated with steroid)” value (human C3A liver cells; Clone ID 4863677)?
A: 1.09 log2

Q: And the “Ave DE [log2] (C3A treated with steroid)” value (human C3A liver cells; Clone ID 4894508)?
A: −0.93 log2

Q: And the “Ave DE [log2] (C3A treated with steroid)” value (human C3A liver cells; Clone ID 5091002)?
A: −1.13 log2

Q: And the “anti-inflammatory and vasoconstrictive effects relative to hydrocortisone” value [1]?
A: 5000 times greater

Source: patent publication US6673549B1, “Genes expressed in C3A liver cell cultures treated with steroids” (Incyte Corporation, priority 2000, dated 2004)
